In PubChem BioAssay (NCI):
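Five compound concentrations were applied to cells in 96-well plates for 48 hours; endpoints were derived by simple linear interpolation of the resulting dose-response curve. GI50: concentration for 50% inhibition of growth. TGI: concentration producing complete growth inhibition.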

Assays:
Test in all cases: growth of human tumour cells (NCI), 48 h
EKVX NSCLC = tested on: EKVX NSCLC
SNB-75 CNS = tested on: SNB-75 CNS
SK-MEL-5 melanoma = tested on: SK-MEL-5 melanoma
NCI-H522 lung = tested on: NCI-H522 lung
HCC-2998 colon = tested on: HCC-2998 colon
XF 498 CNS = tested on: XF 498 CNS
SK-MEL-28 melanoma = tested on: SK-MEL-28 melanoma
KM20L2 colon = tested on: KM20L2 colon
MOLT-4 leukemia = tested on: MOLT-4 leukemia
DMS 273 small cell lung = tested on: DMS 273 small cell lung
HOP-62 NSCLC = tested on: HOP-62 NSCLC
PC-3 prostate = tested on: PC-3 prostate

`O=C1CNC(=O)N1` gave a TGI (EKVX NSCLC) greater than 1120 µM, a TGI (SNB-75 CNS) greater than 1120 µM and a TGI (SK-MEL-5 melanoma) greater than 1120 µM. It also gave a TGI (NCI-H522 lung) greater than 1120 µM, a TGI (HCC-2998 colon) greater than 1120 µM and a TGI (XF 498 CNS) greater than 11.2 µM. For the same molecule, the TGI (SK-MEL-28 melanoma) was greater than 1120 µM, the TGI (KM20L2 colon) was greater than 1120 µM and the TGI (MOLT-4 leukemia) was greater than 1120 µM. For the same molecule, the TGI (DMS 273 small cell lung) was greater than 1120 µM and the TGI (HOP-62 NSCLC) was greater than 1120 µM.

Molecule `Cc1cc(C)c(S(=O)(=O)N(CCCCCCN)OCCCON(CCCCCCN)S(=O)(=O)c2c(C)cc(C)cc2C)c(C)c1` has a TGI (EKVX NSCLC) of 3.19 µM, a TGI (SNB-75 CNS) of 3.17 µM and a TGI (NCI-H522 lung) of 3.27 µM. The TGI (PC-3 prostate) was 3.15 µM and the TGI (HOP-62 NSCLC) was 3.6 µM.

Molecule `CCOC(=O)c1csc(NC(=O)CCN2CCOCC2)n1` has a TGI (EKVX NSCLC) greater than 100 µM, a TGI (SK-MEL-5 melanoma) greater than 100 µM and a TGI (HCC-2998 colon) greater than 100 µM. The TGI (SK-MEL-28 melanoma) was greater than 100 µM, the TGI (MOLT-4 leukemia) was 81.1 µM and the TGI (PC-3 prostate) was greater than 100 µM. It also gave a TGI (HOP-62 NSCLC) greater than 100 µM.

Work on `Fc1cc(C2=Nn3c(nnc3-c3cc(F)c(Cl)cc3Cl)SC2)c(Cl)cc1Cl` yielded a GI50 (EKVX NSCLC) of 24.6 µM, a TGI (EKVX NSCLC) of 90.3 µM and a GI50 (SNB-75 CNS) of 26.2 µM. It also gave a TGI (SNB-75 CNS) greater than 100 µM, a GI50 (SK-MEL-5 melanoma) of 13.4 µM and a TGI (SK-MEL-5 melanoma) of 30.3 µM. The GI50 (NCI-H522 lung) was 24.1 µM, the TGI (NCI-H522 lung) was greater than 100 µM and the GI50 (HCC-2998 colon) was 31.6 µM. It also gave a TGI (HCC-2998 colon) greater than 100 µM, a GI50 (SK-MEL-28 melanoma) of 21.5 µM and a TGI (SK-MEL-28 melanoma) of 54.3 µM. The GI50 (MOLT-4 leukemia) was 16.9 µM, the TGI (MOLT-4 leukemia) was 74.2 µM and the GI50 (PC-3 prostate) was 16.9 µM. It also gave a TGI (PC-3 prostate) greater than 100 µM.

Work on `O=c1n(Cc2ccccc2)c2ccccc2n1CC1CS1` (centres undefined) yielded a TGI (EKVX NSCLC) greater than 100 µM, a TGI (SNB-75 CNS) greater than 100 µM and a TGI (NCI-H522 lung) greater than 100 µM. The TGI (HCC-2998 colon) was greater than 100 µM, the TGI (XF 498 CNS) was greater than 100 µM and the TGI (SK-MEL-28 melanoma) was greater than 100 µM. For the same molecule, the TGI (KM20L2 colon) was greater than 100 µM, the TGI (MOLT-4 leukemia) was greater than 100 µM and the TGI (DMS 273 small cell lung) was greater than 100 µM. The TGI (HOP-62 NSCLC) was greater than 100 µM.

Work on `CC1(C)CCCC2(C)[C@@H]1CC[C@]13C[C@](C)(CC[C@@H]21)[C@@H]3CO` (some centres undefined) yielded a TGI (SNB-75 CNS) greater than 100 µM, a TGI (SK-MEL-5 melanoma) greater than 100 µM and a TGI (NCI-H522 lung) greater than 100 µM. For the same molecule, the TGI (HCC-2998 colon) was greater than 100 µM, the TGI (XF 498 CNS) was greater than 100 µM and the TGI (SK-MEL-28 melanoma) was greater than 100 µM. For the same molecule, the TGI (KM20L2 colon) was greater than 100 µM, the TGI (MOLT-4 leukemia) was greater than 100 µM and the TGI (DMS 273 small cell lung) was greater than 100 µM. It also gave a TGI (HOP-62 NSCLC) greater than 100 µM.
